Measurements as given in ChEMBL document CHEMBL1128291, “The C-32 triacetyl-L-rhamnose derivative of ascomycin: a potent, orally active macrolactone immunosuppressant” (J Med Chem, 1995).

What was measured:
Rattus norvegicus [1] = experiment: In vivo immunosuppressive activity was evaluated by surgically implanting the hearts from Brown Norway rats into the peritoneal cavity of histoincompatible Lewis rats and rejection was assessed; type: functional
[2] = Therapeutic index was determined from the ratio of MND to the ED50 Cmax.(rat adjuvant arthritis)
Rattus norvegicus [3] = species: Rattus norvegicus; experiment: Minimum neurotoxic dose from ED50(rat adjuvant arthritis); type: functional
[4] = Therapeutic index is the plasma Cmax ratio of the minimum neurotoxic dose over the ED50 dose in rat adjuvant arthritis; conditions: read-out: TI
T-cell [5] = experiment: In vitro inhibitory activity against human T-cell proliferation.; type: functional, cell-based
T-cell [6] = experiment: In vitro inhibitory activity against human T-cell production of lymphokine IL-2; type: functional, cell-based
Rattus norvegicus [7] = experiment: In vivo immunosuppressive activity was evaluated by inducing arthritis in lewis rats and measuring the secondary lesions after 16 days; type: functional; conditions: 384 h
[8] = Drug plasma level in rat was determined on the last day of dosing at 1,2,4.8 and 24 hr and ED50 was evaluated; type: ADME, organism-based
Rattus norvegicus [9] = experiment: In vivo immunosuppressive activity was evaluated by inducing arthritis in lewis rats and measuring the primary lesions after 16 days; type: functional; conditions: 384 h
Rattus norvegicus [10] = species: Rattus norvegicus; experiment: Minimum neurotoxic dose/Cmax was determined from ED50(rat adjuvant arthritis); type: functional

Compound	ED100 (Rattus norvegicus [1])	Therapeutic index [2]	MND (Rattus norvegicus [3])	selectivity ratio [4]	IC50 (T-cell [5])	IC50 (T-cell [6])	ED50 (Rattus norvegicus [7])	Cmax [8]	ED50 (Rattus norvegicus [9])	MND Cmax (Rattus norvegicus [10])
CC[C@@H]1/C=C(\C)C[C@H](C)C[C@H](OC)[C@H]2O[C@@](O)(C(=O)C(=O)N3CCCC[C@H]3C(=O)O[C@H](/C(C)=C/[C@@H]3CC[C@@H](OC4OC(C)C(OC(C)=O)C(OC(C)=O)C4OC(C)=O)[C@H](OC)C3)[C@H](C)[C@@H](O)CC1=O)[C@H](C)C[C@@H]2OC (stereo partly drawn)	30 mg/kg	> 10	> 300 mg/kg	> 10	10.4 nM	11 nM	2.3 mg/kg	254 ng/mL	10 mg/kg	> 2910 ng/mL
C/C=C/C[C@@H](C)[C@@H](O)[C@H]1C(=O)N[C@@H](CC)C(=O)N(C)CC(=O)N(C)[C@@H](CC(C)C)C(=O)N[C@@H](C(C)C)C(=O)N(C)[C@@H](CC(C)C)C(=O)N[C@@H](C)C(=O)N[C@H](C)C(=O)N(C)[C@@H](CC(C)C)C(=O)N(C)[C@@H](CC(C)C)C(=O)N(C)[C@@H](C(C)C)C(=O)N1C [CYCLOSPORINE]	15 mg/kg						0.7 mg/kg		3.4 mg/kg	
C=CC[C@@H]1/C=C(\C)C[C@H](C)C[C@H](OC)[C@H]2O[C@@](O)(C(=O)C(=O)N3CCCC[C@H]3C(=O)O[C@H](/C(C)=C/[C@@H]3CC[C@@H](O)[C@H](OC)C3)[C@H](C)[C@@H](O)CC1=O)[C@H](C)C[C@@H]2OC [TACROLIMUS ANHYDROUS]	3 mg/kg	2	12 mg/kg	~2	0.5 nM	0.9 nM	0.6 mg/kg	24 ng/mL	1.9 mg/kg	52 ng/mL
